Calls of active or inactive are those of the source. No cut-off for these calls is given here.
Assays:
A549 [1] = assay: Inhibition of cell migration in PM2.5 induced human A549 assessed as scratch migration length at 10 uM incubated for 24 hr by wound healing assay (reference value: 1.757 +/- 0.094 micrometer); format: functional
A549 [2] = assay: Inhibition of cell invasion in PM2.5 induced human A549 cells assessed as reduction in cell invasiveness at 20 uM measured after 24 hrs by Giemsa staining based transwell assay relative to control; format: functional; set-up: scale not given: the % may be the effect or the level left
A549 [3] = assay: Inhibition of PM2.5 induced TGF-beta1 secretion in human A549 cells at 30 uM by ELISA relative to control; format: functional
[4] = target: T1, Serine/threonine-protein kinase AKT (Homo sapiens) (UniProt P31751+Q9Y243+P31749); assay: Inhibition of PM2.5 induced Akt phosphorylation upregulation in human A549 cells at 10 uM by Western blot analysis relative to control; format: cell-based
T1 sequence (P31749 whole entry, looked up): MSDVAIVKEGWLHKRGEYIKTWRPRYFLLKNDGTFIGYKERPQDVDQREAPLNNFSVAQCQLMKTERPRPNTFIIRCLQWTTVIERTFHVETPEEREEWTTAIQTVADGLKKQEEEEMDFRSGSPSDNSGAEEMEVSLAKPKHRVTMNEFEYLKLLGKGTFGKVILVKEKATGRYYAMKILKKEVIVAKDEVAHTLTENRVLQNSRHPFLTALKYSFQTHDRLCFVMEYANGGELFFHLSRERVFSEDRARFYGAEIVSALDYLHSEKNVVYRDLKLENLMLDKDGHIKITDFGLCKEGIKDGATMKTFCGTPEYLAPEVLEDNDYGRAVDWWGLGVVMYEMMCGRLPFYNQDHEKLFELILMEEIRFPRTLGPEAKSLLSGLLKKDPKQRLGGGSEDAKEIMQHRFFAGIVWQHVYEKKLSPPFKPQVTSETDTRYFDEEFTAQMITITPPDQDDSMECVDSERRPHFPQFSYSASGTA
T1 sequence (P31751 whole entry, looked up): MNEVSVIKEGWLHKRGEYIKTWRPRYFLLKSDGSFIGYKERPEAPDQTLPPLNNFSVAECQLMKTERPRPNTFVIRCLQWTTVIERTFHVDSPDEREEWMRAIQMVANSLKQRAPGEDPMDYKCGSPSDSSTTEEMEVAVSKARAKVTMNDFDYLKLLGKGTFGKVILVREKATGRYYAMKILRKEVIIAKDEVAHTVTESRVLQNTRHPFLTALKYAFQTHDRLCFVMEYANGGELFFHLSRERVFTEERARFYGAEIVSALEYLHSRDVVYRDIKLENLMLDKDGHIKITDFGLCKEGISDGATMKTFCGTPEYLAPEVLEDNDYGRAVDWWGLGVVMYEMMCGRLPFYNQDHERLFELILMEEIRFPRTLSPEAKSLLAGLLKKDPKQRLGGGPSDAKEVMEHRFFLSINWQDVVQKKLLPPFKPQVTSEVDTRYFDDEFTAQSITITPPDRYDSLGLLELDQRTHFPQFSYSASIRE
T1 sequence (Q9Y243 whole entry, looked up): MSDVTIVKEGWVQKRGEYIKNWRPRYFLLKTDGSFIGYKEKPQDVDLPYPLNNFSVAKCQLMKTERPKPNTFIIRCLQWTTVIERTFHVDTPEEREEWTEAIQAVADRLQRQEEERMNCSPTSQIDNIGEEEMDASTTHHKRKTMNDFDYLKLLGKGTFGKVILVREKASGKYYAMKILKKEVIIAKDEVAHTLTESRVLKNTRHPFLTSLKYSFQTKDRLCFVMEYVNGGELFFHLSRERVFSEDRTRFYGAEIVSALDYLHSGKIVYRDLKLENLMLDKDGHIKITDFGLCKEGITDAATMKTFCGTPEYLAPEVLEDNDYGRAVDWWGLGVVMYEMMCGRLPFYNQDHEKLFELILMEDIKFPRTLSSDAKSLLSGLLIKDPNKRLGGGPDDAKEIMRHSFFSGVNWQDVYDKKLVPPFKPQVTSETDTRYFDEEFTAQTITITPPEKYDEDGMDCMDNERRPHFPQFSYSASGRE

A549 [5] = assay: Downregulation of PM2.5 induced vimentin expression in human A549 cells at 10 to 30 uM by Western blot analysis relative to control; format: functional; settings: dose 10-30 µM
A549 [6] = assay: Downregulation of PM2.5 induced MMP-9 activation in human A549 cells at 10 uM by ELISA; format: functional, cell-based
A549 [7] = assay: Reversal of PM2.5 induced EMT in human A549 cells at 10 uM by ELISA; format: functional, cell-based
A549 [8] = assay: Inhibition of cell migration in PM2.5 induced human A549 assessed as relative migration length at 20 uM incubated for 24 hr by wound healing assay (reference value: 0.363 micrometer); format: functional
A549 [9] = assay: Protection against PM2.5 induced human A549 cells injury assessed as reduction in PM2.5 induced cell proliferation inhibition at 10 to 30 uM measured at 24 hrs by CCK-8 analysis; format: functional, cell-based; settings: dose 10-30 µM
[10] = target: T1, Serine/threonine-protein kinase AKT (Homo sapiens); assay: Inhibition of PM2.5 induced Akt phosphorylation upregulation in human A549 cells at 20 uM by Western blot analysis relative to control; format: cell-based
A549 [11] = assay: Downregulation of PM2.5 induced N-cadherin mRNA level in human A549 cells at 20 uM by qRT-PCR analysis relative to control; format: functional
A549 [12] = assay: Cytotoxicity against human A549 cells assessed as reduction in cell viability at 200 uM incubated for 48 hrs by CCK-8 assay relative to control; format: toxicity, cell-based; settings: a549, 48 h
A549 [13] = assay: Downregulation of PM2.5 induced CXCL12 expression in human A549 cells at 10 uM by ELISA relative to control; format: functional
A549 [14] = assay: Downregulation of PM2.5 induced CXCL12 expression in human A549 cells at 20 uM by ELISA relative to control; format: functional
A549 [15] = assay: Downregulation of PM2.5 induced fibronectin mRNA level in human A549 cells at 30 uM by qRT-PCR analysis; format: functional, cell-based
A549 [16] = assay: Inhibition of PM2.5 induced PI3K upregulation in human A549 cells at 20 uM by Western blot analysis relative to control; format: functional
A549 [17] = assay: Inhibition of cell migration in PM2.5 induced human A549 assessed as scratch migration length at 10 uM incubated for 0 hr by wound healing assay (reference value: 2.120 +/- 0.132 micrometer); format: functional
A549 [18] = assay: Inhibition of cell invasion in PM2.5 induced human A549 cells assessed as number of cell perforation at 30 uM measured after 24 hrs by Giemsa staining based transwell assay (reference value: 93 +/- 4.04%); format: functional; set-up: scale not given: the % may be the effect or the level left
A549 [19] = assay: Inhibition of cell invasion in PM2.5 induced human A549 cells assessed as reduction in cell invasiveness at 30 uM measured after 24 hrs by Giemsa staining based transwell assay relative to control; format: functional; set-up: scale not given: the % may be the effect or the level left
A549 [20] = assay: Upregulation of PM2.5 induced E-cadherin mRNA expression in human A549 cells at 10 uM by qRT-PCR analysis; format: functional, cell-based
A549 [21] = assay: Downregulation of PM2.5 induced MMP-2 activation in human A549 cells at 10 uM by ELISA; format: functional, cell-based
A549 [22] = assay: Inhibition of cell migration in PM2.5 induced human A549 assessed as scratch migration length at 20 uM incubated for 0 hr by wound healing assay (reference value: 2.120 +/- 0.132 micrometer); format: functional
A549 [23] = assay: Inhibition of cell invasion in PM2.5 induced human A549 cells assessed as number of cell perforation at 10 uM measured after 24 hrs by Giemsa staining based transwell assay (reference value: 93 +/- 4.04%); format: functional; set-up: scale not given: the % may be the effect or the level left
A549 [24] = assay: Inhibition of cell migration in PM2.5 induced human A549 assessed as scratch migration length at 30 uM incubated for 0 hr by wound healing assay (reference value: 2.120 +/- 0.132 micrometer); format: functional
A549 [25] = assay: Upregulation of PM2.5 induced E-cadherin expression in human A549 cells at 30 uM by Western blot analysis; format: functional, cell-based
A549 [26] = assay: Inhibition of cell migration in PM2.5 induced human A549 assessed as relative migration length at 30 uM incubated for 24 hr by wound healing assay (reference value: 0.363 micrometer); format: functional

COc1ccc(-c2coc3cc(O)cc(O)c3c2=O)cc1 [BIOCHANIN]
Activity (A549 [1]): 1.568 um
Activity (A549 [2]): 34.09%
inhibition at 30 µM (A549 [3]): 24.8%
inhibition [4]: 30%
Activity (A549 [5]): 45%
Activity (A549 [6]): Active
Activity (A549 [7]): Active
Activity (A549 [8]): 0.481 um
Activity (A549 [9]): Active
inhibition [10]: 73.6%
Activity (A549 [11]): 79%
Activity (A549 [12]): 19%
Activity (A549 [13]): 17%
Activity (A549 [14]): 20%
Activity (A549 [15]): Active
inhibition at 20 µM (A549 [16]): 50%
Activity (A549 [17]): 1.973 um
Activity (A549 [18]): 52%
Activity (A549 [19]): 44.1%
Activity (A549 [20]): Active
Activity (A549 [21]): Active
Activity (A549 [22]): 1.932 um
Activity (A549 [23]): 92%
Activity (A549 [24]): 1.854 um
Activity (A549 [25]): Active
Activity (A549 [26]): 0.302 um

Reference: ChEMBL document CHEMBL5137131, “Mechanisms of Biochanin A Alleviating PM2.5 Organic Extracts-Induced EMT of A549 Cells through the PI3K/Akt Pathway” (J Nat Prod, 2022)
